Test results taken from the supplement of paper PMC10307832.

Assays:
Test in all cases: relative viability (nuclei count vs DMSO), 5 days (fraction); higher = more cells survive
[1] = compound: COc1cc(Nc2ncc3c(n2)-c2ccc(Cl)cc2C(c2c(F)cccc2OC)=NC3)ccc1C(=O)O [Alisertib] + Cc1cc(Nc2cc(N3CCN(C)CC3)nc(Sc3ccc(NC(=O)C4CC4)cc3)n2)n[nH]1 [Tozasertib] (partner 0.1 µM)
Summary of the method: (§1)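 Five library-drug doses in √10 steps were combined with a fixed anchor-drug dose, or a single drug was given alone, by pin tool to lung cancer cell lines in 1536-well plates the day after seeding. Nuclei were stained and counted after 5 days. Relative viability is the nuclei count in treated wells over that in vehicle wells, taken as the median of duplicate plates.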

[2] = compound: COc1cc(Nc2ncc3c(n2)-c2ccc(Cl)cc2C(c2c(F)cccc2OC)=NC3)ccc1C(=O)O [Alisertib] + CCNC(=O)c1noc(-c2cc(C(C)C)c(O)cc2O)c1-c1ccc(CN2CCOCC2)cc1 [Luminespib] (partner 0.01 µM)
Summary of the method: as §1

[3] = compound: COc1cc(Nc2ncc3c(n2)-c2ccc(Cl)cc2C(c2c(F)cccc2OC)=NC3)ccc1C(=O)O [Alisertib] + Cc1nc(Nc2ncc(C(=O)Nc3c(C)cccc3Cl)s2)cc(N2CCN(CCO)CC2)n1 [Dasatinib] (partner 0.075 µM)
Summary of the method: as §1

[4] = compound: COc1cc(Nc2ncc3c(n2)-c2ccc(Cl)cc2C(c2c(F)cccc2OC)=NC3)ccc1C(=O)O [Alisertib] + Cc1nc(NC(=O)N2CCC[C@H]2C(N)=O)sc1-c1ccnc(C(C)(C)C(F)(F)F)c1 [Alpelisib] (partner 2 µM)
Summary of the method: as §1

Cell Line NCI-H3122 has a relative viability ([1]; first compound 0.005 µM) of 0.384, a relative viability ([1]; first compound 0.01581 µM) of 0.315 and a relative viability ([1]; first compound 0.05 µM) of 0.235. For the same cell line, the relative viability ([1]; first compound 0.1581 µM) was 0.27, the relative viability ([1]; first compound 0.5 µM) was 0.191 and the relative viability ([2]; first compound 0.005 µM) was 0.105. It also gave a relative viability ([2]; first compound 0.01581 µM) of 0.101, a relative viability ([2]; first compound 0.05 µM) of 0.0716 and a relative viability ([2]; first compound 0.1581 µM) of 0.0737. For the same cell line, the relative viability ([2]; first compound 0.5 µM) was 0.0805, the relative viability ([3]; first compound 0.005 µM) was 0.581 and the relative viability ([3]; first compound 0.01581 µM) was 0.664. For the same cell line, the relative viability ([3]; first compound 0.05 µM) was 0.498, the relative viability ([3]; first compound 0.1581 µM) was 0.103 and the relative viability ([3]; first compound 0.5 µM) was 0.134. It also gave a relative viability ([4]; first compound 0.005 µM) of 0.741, a relative viability ([4]; first compound 0.01581 µM) of 0.747 and a relative viability ([4]; first compound 0.05 µM) of 0.472. The relative viability ([4]; first compound 0.1581 µM) was 0.295 and the relative viability ([4]; first compound 0.5 µM) was 0.211.
Cell Line PC-3 [JPC-3] has a relative viability ([1]; first compound 0.005 µM) of 0.893, a relative viability ([1]; first compound 0.01581 µM) of 0.814 and a relative viability ([1]; first compound 0.05 µM) of 0.548. For the same cell line, the relative viability ([1]; first compound 0.1581 µM) was 0.551, the relative viability ([1]; first compound 0.5 µM) was 0.387 and the relative viability ([2]; first compound 0.005 µM) was 0.705. It also gave a relative viability ([2]; first compound 0.01581 µM) of 0.661, a relative viability ([2]; first compound 0.05 µM) of 0.455 and a relative viability ([2]; first compound 0.1581 µM) of 0.376. It also gave a relative viability ([2]; first compound 0.5 µM) of 0.359, a relative viability ([3]; first compound 0.005 µM) of 0.917 and a relative viability ([3]; first compound 0.01581 µM) of 0.927. The relative viability ([3]; first compound 0.05 µM) was 0.907, the relative viability ([3]; first compound 0.1581 µM) was 0.781 and the relative viability ([3]; first compound 0.5 µM) was 0.442. It also gave a relative viability ([4]; first compound 0.005 µM) of 0.952, a relative viability ([4]; first compound 0.01581 µM) of 0.98 and a relative viability ([4]; first compound 0.05 µM) of 0.751. The relative viability ([4]; first compound 0.1581 µM) was 0.598 and the relative viability ([4]; first compound 0.5 µM) was 0.369.
Cell Line PC-14 has a relative viability ([1]; first compound 0.005 µM) of 0.566, a relative viability ([1]; first compound 0.01581 µM) of 0.492 and a relative viability ([1]; first compound 0.05 µM) of 0.26. It also gave a relative viability ([1]; first compound 0.1581 µM) of 0.0568, a relative viability ([1]; first compound 0.5 µM) of 0.06 and a relative viability ([2]; first compound 0.005 µM) of 0.177. For the same cell line, the relative viability ([2]; first compound 0.01581 µM) was 0.141, the relative viability ([2]; first compound 0.05 µM) was 0.146 and the relative viability ([2]; first compound 0.1581 µM) was 0.134. For the same cell line, the relative viability ([2]; first compound 0.5 µM) was 0.151, the relative viability ([3]; first compound 0.005 µM) was 0.213 and the relative viability ([3]; first compound 0.01581 µM) was 0.248. It also gave a relative viability ([3]; first compound 0.05 µM) of 0.177, a relative viability ([3]; first compound 0.1581 µM) of 0.0304 and a relative viability ([3]; first compound 0.5 µM) of 0.0192. The relative viability ([4]; first compound 0.005 µM) was 0.901, the relative viability ([4]; first compound 0.01581 µM) was 0.84 and the relative viability ([4]; first compound 0.05 µM) was 0.686. It also gave a relative viability ([4]; first compound 0.1581 µM) of 0.277 and a relative viability ([4]; first compound 0.5 µM) of 0.106.
With RERF-LC-KJ the relative viability ([1]; first compound 0.005 µM) was 0.511, the relative viability ([1]; first compound 0.01581 µM) was 0.386 and the relative viability ([1]; first compound 0.05 µM) was 0.253. The relative viability ([1]; first compound 0.1581 µM) was 0.27, the relative viability ([1]; first compound 0.5 µM) was 0.218 and the relative viability ([2]; first compound 0.005 µM) was 1.24. It also gave a relative viability ([2]; first compound 0.01581 µM) of 0.81, a relative viability ([2]; first compound 0.05 µM) of 0.342 and a relative viability ([2]; first compound 0.1581 µM) of 0.248. The relative viability ([2]; first compound 0.5 µM) was 0.312, the relative viability ([3]; first compound 0.005 µM) was 0.73 and the relative viability ([3]; first compound 0.01581 µM) was 0.672. It also gave a relative viability ([3]; first compound 0.05 µM) of 0.366, a relative viability ([3]; first compound 0.1581 µM) of 0.187 and a relative viability ([3]; first compound 0.5 µM) of 0.17. For the same cell line, the relative viability ([4]; first compound 0.005 µM) was 0.819, the relative viability ([4]; first compound 0.01581 µM) was 0.823 and the relative viability ([4]; first compound 0.05 µM) was 0.622. It also gave a relative viability ([4]; first compound 0.1581 µM) of 0.283 and a relative viability ([4]; first compound 0.5 µM) of 0.196.
SK-LU-1 showed a relative viability ([1]; first compound 0.005 µM) of 0.303, a relative viability ([1]; first compound 0.01581 µM) of 0.286 and a relative viability ([1]; first compound 0.05 µM) of 0.219. For the same cell line, the relative viability ([1]; first compound 0.1581 µM) was 0.224, the relative viability ([1]; first compound 0.5 µM) was 0.205 and the relative viability ([2]; first compound 0.005 µM) was 0.178. For the same cell line, the relative viability ([2]; first compound 0.01581 µM) was 0.18, the relative viability ([2]; first compound 0.05 µM) was 0.159 and the relative viability ([2]; first compound 0.1581 µM) was 0.184. For the same cell line, the relative viability ([2]; first compound 0.5 µM) was 0.178, the relative viability ([3]; first compound 0.005 µM) was 0.192 and the relative viability ([3]; first compound 0.01581 µM) was 0.157. For the same cell line, the relative viability ([3]; first compound 0.05 µM) was 0.116, the relative viability ([3]; first compound 0.1581 µM) was 0.125 and the relative viability ([3]; first compound 0.5 µM) was 0.104. The relative viability ([4]; first compound 0.005 µM) was 0.929, the relative viability ([4]; first compound 0.01581 µM) was 0.458 and the relative viability ([4]; first compound 0.05 µM) was 0.286. It also gave a relative viability ([4]; first compound 0.1581 µM) of 0.302 and a relative viability ([4]; first compound 0.5 µM) of 0.247.
SK-MES-1 gave a relative viability ([1]; first compound 0.005 µM) of 0.819, a relative viability ([1]; first compound 0.01581 µM) of 0.705 and a relative viability ([1]; first compound 0.05 µM) of 0.429. For the same cell line, the relative viability ([1]; first compound 0.1581 µM) was 0.207, the relative viability ([1]; first compound 0.5 µM) was 0.135 and the relative viability ([2]; first compound 0.005 µM) was 0.723. It also gave a relative viability ([2]; first compound 0.01581 µM) of 0.4, a relative viability ([2]; first compound 0.05 µM) of 0.273 and a relative viability ([2]; first compound 0.1581 µM) of 0.144. The relative viability ([2]; first compound 0.5 µM) was 0.17, the relative viability ([3]; first compound 0.005 µM) was 0.354 and the relative viability ([3]; first compound 0.01581 µM) was 0.466. It also gave a relative viability ([3]; first compound 0.05 µM) of 0.253, a relative viability ([3]; first compound 0.1581 µM) of 0.125 and a relative viability ([3]; first compound 0.5 µM) of 0.074. For the same cell line, the relative viability ([4]; first compound 0.005 µM) was 0.681, the relative viability ([4]; first compound 0.01581 µM) was 0.717 and the relative viability ([4]; first compound 0.05 µM) was 0.341. It also gave a relative viability ([4]; first compound 0.1581 µM) of 0.172 and a relative viability ([4]; first compound 0.5 µM) of 0.139.
With SW 1573 the relative viability ([1]; first compound 0.005 µM) was 0.135, the relative viability ([1]; first compound 0.01581 µM) was 0.153 and the relative viability ([1]; first compound 0.05 µM) was 0.132. It also gave a relative viability ([1]; first compound 0.1581 µM) of 0.147, a relative viability ([1]; first compound 0.5 µM) of 0.158 and a relative viability ([2]; first compound 0.005 µM) of 0.28. For the same cell line, the relative viability ([2]; first compound 0.01581 µM) was 0.139, the relative viability ([2]; first compound 0.05 µM) was 0.106 and the relative viability ([2]; first compound 0.1581 µM) was 0.0766. It also gave a relative viability ([2]; first compound 0.5 µM) of 0.102, a relative viability ([3]; first compound 0.005 µM) of 0.329 and a relative viability ([3]; first compound 0.01581 µM) of 0.299. The relative viability ([3]; first compound 0.05 µM) was 0.141, the relative viability ([3]; first compound 0.1581 µM) was 0.159 and the relative viability ([3]; first compound 0.5 µM) was 0.0978. For the same cell line, the relative viability ([4]; first compound 0.005 µM) was 0.768, the relative viability ([4]; first compound 0.01581 µM) was 0.798 and the relative viability ([4]; first compound 0.05 µM) was 0.455. It also gave a relative viability ([4]; first compound 0.1581 µM) of 0.272 and a relative viability ([4]; first compound 0.5 µM) of 0.171.
Cell Line UMC-11 has a relative viability ([1]; first compound 0.005 µM) of 0.201, a relative viability ([1]; first compound 0.01581 µM) of 0.23 and a relative viability ([1]; first compound 0.05 µM) of 0.201. The relative viability ([1]; first compound 0.1581 µM) was 0.213, the relative viability ([1]; first compound 0.5 µM) was 0.219 and the relative viability ([2]; first compound 0.005 µM) was 0.85. The relative viability ([2]; first compound 0.01581 µM) was 0.428, the relative viability ([2]; first compound 0.05 µM) was 0.173 and the relative viability ([2]; first compound 0.1581 µM) was 0.141. It also gave a relative viability ([2]; first compound 0.5 µM) of 0.132, a relative viability ([3]; first compound 0.005 µM) of 0.32 and a relative viability ([3]; first compound 0.01581 µM) of 0.184. It also gave a relative viability ([3]; first compound 0.05 µM) of 0.157, a relative viability ([3]; first compound 0.1581 µM) of 0.144 and a relative viability ([3]; first compound 0.5 µM) of 0.127. For the same cell line, the relative viability ([4]; first compound 0.005 µM) was 0.736, the relative viability ([4]; first compound 0.01581 µM) was 0.194 and the relative viability ([4]; first compound 0.05 µM) was 0.137. The relative viability ([4]; first compound 0.1581 µM) was 0.135 and the relative viability ([4]; first compound 0.5 µM) was 0.103.
